These results are taken from patent publication US9649305B2, “PFKFB3 inhibitor and methods of use as an anti-cancer therapeutic” (ADVANCED CANCER THERAPEUTICS, LLC, priority 2012, dated 2017).

SMILES strings stand for the structures. Like-named read-outs stand apart in the source and are kept apart here.

The nature of series [1]: Chemical stability of Cremophor based IV formulation. The series is classed as physicochemical. Conditions: about 1 mg/ml in Cremophor:ethyl alcohol 1:1 diluted 1:9 in saline, WFI, lactate Ringer's or D5W. The method, then: PFK-158 and its salts can be prepared in a Cremophor® based formulation. In one embodiment, 10 mg PFK-158 are dissolved in 1 ml of 1:1 v:v Cremophor®:ethyl alcohol solution using vigorous stirring. Once the compound is effectively dissolved, the solution is filtered and then added to saline, water for injection, lactate Ringer's, or D5W in a 1:9 ratio, resulting in a clear solution, free from particles, with a PFK-158 concentration of about 1 mg/ml. The composition is chemically stable for at least 6 hours and can be administered to mammals, including humans.

For another series, the system named is SKOV-3. As to the kind of experiment: Cancer cell proliferation, MTT assay. Conditions: Homo sapiens, SK-OV-3; SKOV-3, MTT assay, 48 hours. Format: cell-based. Here is the method: (§1) The ability of PFK-158 to kill or inhibit the proliferation of cancer cells was measured using either the MTT assay, the alamarBlue® assay (Invitrogen, Grand Island, N.Y.), or the CellTiter Glo™ assay (Promega, Madison, Wis.) using 48 or 72 hours exposure.
(§2) Cells of the desired tumor cell line were plated at 2×10^5 cells/ml in 96 well plates. Twice the indicated concentrations of the compounds of the invention were added to cells the following day in an equal volume of media. 72 hours later, cells were lysed and subjected to ATP determination using the CellTiter-Glo™ Luminescent Cell Viability Assay kit. Experiments were performed in triplicate. When using the MTT assay or the alamarBlue® assay, the experimental conditions are essentially similar; at the end of the incubation period, 20 microliters of the MTT solution is added per well and the samples are incubated for an additional four hours, rinsed, and absorbance at 570 nm was measured. Results for the inhibition of cell proliferation are reported as the IC50 (the concentration resulting in 50% inhibition of proliferation of the cell population) and are listed in Table 5 below. Cell lines include lung, colon, prostate, breast, ovarian, and pancreatic cancer lines.
Background: Formazan colour is commonly taken as a measure of viable cells.

For the next series, the system named is HT29. As to the kind of experiment: Cancer cell proliferation, MTT assay. Conditions: Homo sapiens, HT-29, 48 hours. The series is classed as cell-based. The method, then: as §1, §2
In series [2] the test system is Jurkat cell line (leukemia cell line). As to the kind of experiment: Toxicity / cell growth of Jurkat cell line. The series is classed as cell-based. The conditions noted are these: Homo sapiens. Here is the method: as §1, §2
For series [3], the system named is lung cancer model, pancreatic cancer model, colon cancer model. As to the kind of experiment: Tumor growth inhibition in mouse cancer models. Here is the method:
Studies determining efficacy of PFK-158 at inhibiting tumor growth in mouse cancer models were performed. These studies were carried out with PFK-158 alone and in combination with compounds currently used in the treatment of cancer patients. Studies were performed in a lung cancer model, a pancreatic cancer model, and in a colon cancer model.
Efficacy of PFK-158 was studied in vivo in tumor models. Several tumor models were used in these studies (the Lewis lung carcinoma, or LLC model, the CT-26 colon carcinoma tumor model, or the BXPC3 pancreatic cancer model). The experimental protocol for the LLC study is described below. Subsequent to subcutaneous inoculation of tumor cells, tumors started to develop and once tumors reached the desired volume of 100-125 mm^3 on average, treatment was initiated. Tumor volume was monitored in both groups and the average for both the control and treatment groups was measured three times a week, as well as body weights.
Briefly, normal female C57BL/6 mice at 7-8 weeks of age were used for the study. Mice were housed in microisolator housing, with food and water provided as libitum, and quarantined for 4 days prior to the initiation of the study. LLC cells were maintained in a monolayer culture in DMEM medium supplemented with 10% heat inactivated fetal calf serum, 100 U/ml penicillin and 100 μg/ml streptomycin, and L-glutamine (2 mM) at 37° C. in an atmosphere of 5% CO2 in air. The tumor cells were routinely sub-cultured twice a week. The cells growing in an exponential phase were harvested and counted for tumor inoculation. Each mouse was inoculated subcutaneously at the right flank with the LLC tumor cells (3×10^5) in 0.1 ml of PBS for tumor development. When athymic nude mice were used, as for the BxPC3 model, then the strain of mice is slightly different. Furthermore, the use of Matrigel supports tumor development, meaning that cells are suspended in 100 μl of a mixture of medium/Matrigel (1:1) and are then subcutaneously implanted in the right flank region. Animals were monitored for tumor growth daily after cell implantation. When tumor volumes reached approximately 100-125 mm^3, mice were randomized into groups of 8 mice each using only mice having tumor volumes closest to the mean value. Tumor volumes were measured using the formula V=L×W×H×π/6, where L and W represent the longer and shorter diameters of the tumor and H represents the height of the tumor. Treatment began following randomization. PFK-158 was administered IP at a dose of 60 mg/kg on days 1, 3, 5, 7, 9, 11, and 13.
Similar protocols were used for the other studies using different models; differences included the use of Balbc/nude mice; administering larger number of cancer cells; and use of Matrigel.

Series [4] in a line: IV pharmacokinetics in rats, 30 mg/kg. The series is classed as in vivo. Conditions: Table 7, Rat (30 mg/kg), Sprague Dawley rats. Here is the method: (§3) The pharmacokinetic (PK) parameters for PFK-158 were determined in mice following IV (intravenous) administration in mice and rats. A typical study design includes six animals (male or female) 7 to 8 weeks old.
(§4) Mouse pharmacokinetic properties using a dose of 5 mg/kg were determined after IV administration using a 10% DMSO, 10% PEG-200, 10% Solutol:ethanol (1:1) and 70% D5W solution or any other pharmaceutically acceptable parenteral formulation. Blood samples were collected at different intervals. Plasma samples were extracted and analyzed using an LC-MS/MS method. Similar protocols were used for the rat PK study (Sprague Dawley rats; 30 mg/kg), although the formulation for rat PK studies differed (30% Captisol, pH 3.0 solution). Time vs. plasma concentration plots were prepared as shown in FIGS. 4 (BalbC mice) and 5 (SD rats), respectively. Pharmacokinetic parameters were calculated and are provided below in Table 7.

The next series deals with LLC tumor. As to the kind of experiment: Lewis lung carcinoma (LLC) model. The series is classed as in vivo. Conditions: IP 60 mg/kg on days 1, 3, 5, 7, 9, 11, 13. From the text:
Treatment began following randomization.

Series [5] in a line: IV pharmacokinetics in mice. The series is classed as in vivo, Balbc mice. Here is the method:
as §3, §4

Series [6] in a line: In vitro stability in human liver microsomes. Format: in vitro ADME. For orientation: Liver microsomes are a subcellular fraction often used to study metabolism.
Setting [7] is: Table 7, Mouse (5 mg/kg), IV, Balbc mice.
Where [8] appears, read: mouse, plasma, 5 mg/kg, Table 2, Balbc mice, IV dosing.

A word on the IC50: it is the midpoint of a concentration-inhibition curve. The Cmax is the highest concentration seen after dosing. A word on the clearance: it is the volume of plasma or blood freed of the substance per unit of time. The term half-life denotes the time needed for the level to fall by half in the phase considered. Lower therefore signals fast loss. Consider `O=C(/C=C/c1ccc2ccc(C(F)(F)F)cc2n1)c1ccncc1` [PFK-158, (E)-1-(pyridyn-4-yl)-3-(7-(trifluoromethyl)quinolin-2-yl)-prop-2-en-1-one], for which, in series [1], the “chemical stability of composition” value was “at least 6 hours”. Besides, the IC50 in the series on SKOV-3 is 2620 nM; in the series with HT29, 4130 nM; in [2] (Jurkat, Table 1, read-out: IC50, toxicity of Jurkat cell line (leukemia cell line)), 330 ± 100 nM; in series [2] (Table 6, Jurkat cells, read-out: IC50 Cell Growth), 328 ± 15 nM. In [3] (lung, pancreatic and colon cancer mouse models), the tumor growth inhibition is recorded as 50% to 70. Further, the body weight loss result in series [3] (mouse, in vivo) is reported as “without noticeable body weight loss or death”. For the same compound, in [3] (tumor models, FIGS. 6-8), the “effect of combination with other chemotherapeutic agents” value was “additive or synergistic effect”. The T1/2b in series [4] is reported as 8.6 h; in [5] (setting [7]) it was 10.4 h. In addition, the AUC(0-inf) is 3300 ng·h/mL in series [4] (plasma); 3,235 ng · h/ml in series [5] (setting [7]); 3235 ng·h/mL in series [5] (Table 9, BalbC mice, IV dosing); 3240 ng·h/mL in series [5] (mouse, plasma, 5 mg/kg, Table 2, Balbc mice, IV dosing, read-out: AUC0-inf). Besides, the Cmax in series [4] (plasma) was 18900 ng/mL; in series [5] (setting [7]), 4,176 ng/mL; in [5] (mouse, plasma, 5 mg/kg, Table 2, Balbc mice, IV dosing, read-out: Cmax), 4180 ng/mL. Moreover, the “body weight loss (tolerability)” value with LLC tumor is “no noticeable body weight loss”. This compound displayed a T1/2 in series [5] (Table 9, BalbC mice, IV dosing) of 10.5 h. In series [5] (setting [8]), this compound had a clearance of 26 mL/min/kg. The same compound had a half-life in series [5] (setting [8]) of 10.5 h. Also, the “Percent metabolized after 1 hr” value in series [6] is 37%.
